Source: the supplement of paper PMC10307832

These cell lines were tested with COc1cc(Nc2ncc(F)c(Nc3ccc4c(n3)NC(=O)C(C)(C)O4)n2)cc(OC)c1OC [R406] + Nc1nc2[nH]cc(CCc3ccc(C(=O)N[C@@H](CCC(=O)O)C(=O)O)cc3)c2c(=O)[nH]1 [Pemetrexed] (partner 0.2 µM) (assay: relative viability (nuclei count vs DMSO), 5 days (fraction); higher = more cells survive). Conditions: first compound 0.08 µM.
How it was run: (§1)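 Each reported value is a median over duplicate plates. It expresses relative viability: treated-well nuclei count divided by vehicle-well nuclei count. Lung cancer cell lines in 1536-well plates were dosed by pin tool a day after seeding, alone with one drug or with a fixed anchor-drug dose plus five library-drug doses (not always all listed) in √10 steps, and nuclei were counted after 5 days.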

Cell Line	relative viability
NCI-H522	0.832
NCI-H2342	0.737
NCI-H838	0.257
NCI-H1650	0.355
NCI-H1993	0.618
NCI-H441	0.219
PC-14	0.139
LCLC-103H	0.477
NCI-H596	0.527
NCI-H2126	0.749
EMC-BAC-2	0.421
NCI-H2085	0.89
HCC-366	0.161
NCI-H1666	0.825
NCI-H647	0.172
LK-2	0.192
NCI-H2087	0.712
NCI-H358	0.167
NCI-H2170	0.194

Cell Line	relative viability
H3255	0.547
COR-L23	0.2
COR-L 105	1.29
LOU-NH91	0.362
ChaGo-K-1	0.25
NCI-H1793	0.711
NCI-H2405	1.14
HOP-62	0.315
HCC-44	0.585
SK-MES-1	0.948
LU99A	0.188
BEN	0.773
HARA	0.261
SW 900	0.486
NCI-H1395	0.865
NCI-H1792	0.838
NCI-H1563	0.707
NCI-H1648	0.749
NCI-H1944	0.617

Same assay, conditions: first compound 0.253 µM

Cell Line	relative viability
NCI-H522	1.04
NCI-H2342	0.835
NCI-H838	0.268
NCI-H1650	0.408
NCI-H1993	0.5
NCI-H441	0.261
PC-14	0.131
LCLC-103H	0.462
NCI-H596	0.554
NCI-H2126	0.664
EMC-BAC-2	0.457
NCI-H2085	0.902
HCC-366	0.17
NCI-H1666	1.05
NCI-H647	0.178
LK-2	0.326
NCI-H2087	0.733
NCI-H358	0.17
NCI-H2170	0.262

Cell Line	relative viability
H3255	0.588
COR-L23	0.182
COR-L 105	1.22
LOU-NH91	0.399
ChaGo-K-1	0.25
NCI-H1793	1.09
NCI-H2405	1.22
HOP-62	0.348
HCC-44	0.621
SK-MES-1	0.942
LU99A	0.183
BEN	0.879
HARA	0.236
SW 900	0.486
NCI-H1395	1.01
NCI-H1792	1.07
NCI-H1563	0.929
NCI-H1648	0.727
NCI-H1944	0.617

Same assay, conditions: first compound 0.8 µM

Cell Line	relative viability
NCI-H522	1.09
NCI-H2342	0.862
NCI-H838	0.244
NCI-H1650	0.37
NCI-H1993	0.678
NCI-H441	0.263
PC-14	0.135
LCLC-103H	0.486
NCI-H596	0.428
NCI-H2126	0.722
EMC-BAC-2	0.427
NCI-H2085	0.867
HCC-366	0.172
NCI-H1666	0.86
NCI-H647	0.17
LK-2	0.38
NCI-H2087	0.683
NCI-H358	0.168
NCI-H2170	0.238

Cell Line	relative viability
H3255	0.606
COR-L23	0.191
COR-L 105	1.12
LOU-NH91	0.37
ChaGo-K-1	0.248
NCI-H1793	1.15
NCI-H2405	1.08
HOP-62	0.297
HCC-44	0.603
SK-MES-1	1.01
LU99A	0.224
BEN	0.805
HARA	0.246
SW 900	0.532
NCI-H1395	0.856
NCI-H1792	1.39
NCI-H1563	0.794
NCI-H1648	0.754
NCI-H1944	0.684

Same assay, conditions: first compound 2.53 µM

Cell Line	relative viability
NCI-H522	0.937
NCI-H2342	0.749
NCI-H838	0.226
NCI-H1650	0.291
NCI-H1993	0.578
NCI-H441	0.257
PC-14	0.101
LCLC-103H	0.499
NCI-H596	0.392
NCI-H2126	0.599
EMC-BAC-2	0.499
NCI-H2085	0.64
HCC-366	0.164
NCI-H1666	0.718
NCI-H647	0.0932
LK-2	0.191
NCI-H2087	0.746
NCI-H358	0.146
NCI-H2170	0.24

Cell Line	relative viability
H3255	0.521
COR-L23	0.183
COR-L 105	1.24
LOU-NH91	0.455
ChaGo-K-1	0.253
NCI-H1793	0.147
NCI-H2405	0.495
HOP-62	0.412
HCC-44	0.601
SK-MES-1	0.538
LU99A	0.187
BEN	0.835
HARA	0.262
SW 900	0.129
NCI-H1395	0.865
NCI-H1792	0.0474
NCI-H1563	0.659
NCI-H1648	0.675
NCI-H1944	0.571

Same assay, conditions: first compound 8 µM

Cell Line	relative viability
NCI-H522	0.747
NCI-H2342	0.774
NCI-H838	0.136
NCI-H1650	0.358
NCI-H1993	0.464
NCI-H441	0.234
PC-14	0.042
LCLC-103H	0.376
NCI-H596	0.324
NCI-H2126	0.61
EMC-BAC-2	0.229
NCI-H2085	0.589
HCC-366	0.132
NCI-H1666	0.674
NCI-H647	0.0585
LK-2	0.126
NCI-H2087	0.679
NCI-H358	0.145
NCI-H2170	0.221

Cell Line	relative viability
H3255	0.49
COR-L23	0.191
COR-L 105	0.841
LOU-NH91	0.38
ChaGo-K-1	0.233
NCI-H1793	0.157
NCI-H2405	0.224
HOP-62	0.344
HCC-44	0.726
SK-MES-1	0.213
LU99A	0.172
BEN	0.438
HARA	0.174
SW 900	0.0856
NCI-H1395	0.434
NCI-H1792	0.194
NCI-H1563	0.444
NCI-H1648	0.653
NCI-H1944	0.411

What follows are cell lines tested with O=C(/C=C/c1cccnc1)NCCCCC1CCN(C(=O)c2ccccc2)CC1 [Daporinad] + CC(C)C[C@H](NC(=O)[C@H](Cc1ccccc1)NC(=O)c1cnccn1)B(O)O [Bortezomib] (partner 0.002 µM) in the same assay as above. Conditions: first compound 0.0005 µM.
How it was run: as §1

Cell Line	relative viability
NCI-H838	0.795
NCI-H1650	0.182
EBC-1	0.546
NCI-H1703	0.403
NCI-H1993	0.919
PC-14	0.845
LCLC-103H	1.11
NCI-H596	1.05
NCI-H2126	1.07
EMC-BAC-2	1.22
NCI-H2085	1
Calu-6	0.957
HCC-366	0.971
NCI-H1666	0.846
NCI-H647	1.03
NCI-H2087	0.676

Cell Line	relative viability
H3255	0.642
COR-L23	1.01
COR-L 105	0.827
IA-LM	0.746
LOU-NH91	0.532
ChaGo-K-1	0.912
NCI-H2405	1
HCC-44	0.83
LU99A	1.11
BEN	0.805
HARA	0.979
NCI-H727	0.813
NCI-H1299	1.02
NCI-H1792	0.924
NCI-H1563	0.917
ABC-1	0.265

Same assay, conditions: first compound 0.001581 µM

Cell Line	relative viability
NCI-H838	1.2
NCI-H1650	0.222
EBC-1	0.506
NCI-H1703	0.382
NCI-H1993	1.21
NCI-H441	0.476
PC-14	0.891
LCLC-103H	1
NCI-H596	1.02
NCI-H2126	1.14
EMC-BAC-2	1.04
NCI-H2085	1.12
Calu-6	1.04
HCC-366	1.1
NCI-H1666	0.93
NCI-H647	1.04
NCI-H2087	0.644

Cell Line	relative viability
H3255	0.806
COR-L23	0.973
COR-L 105	0.815
IA-LM	0.807
LOU-NH91	0.465
ChaGo-K-1	0.574
NCI-H2405	0.772
HOP-62	0.84
HCC-44	0.843
LU99A	1.17
BEN	0.796
HARA	1.12
NCI-H727	0.798
NCI-H1299	1.02
NCI-H1792	0.98
NCI-H1563	0.958
ABC-1	0.32

Same assay, conditions: first compound 0.005 µM

Cell Line	relative viability
NCI-H838	0.828
NCI-H1650	0.219
EBC-1	0.558
NCI-H1703	0.422
NCI-H1993	1.09
NCI-H441	0.486
PC-14	0.988
LCLC-103H	1.07
NCI-H596	0.998
NCI-H2126	1.13
EMC-BAC-2	1.06
NCI-H2085	1.08
Calu-6	0.848
HCC-366	1.12
NCI-H1666	0.9
NCI-H647	1.14
NCI-H2087	0.868

Cell Line	relative viability
H3255	0.865
COR-L23	0.753
COR-L 105	0.781
IA-LM	0.872
LOU-NH91	0.559
ChaGo-K-1	0.859
NCI-H2405	1.02
HOP-62	0.962
HCC-44	0.841
LU99A	1.36
BEN	1.04
HARA	1.15
NCI-H727	0.838
NCI-H1299	1.04
NCI-H1792	0.711
NCI-H1563	0.838
ABC-1	0.312

Same assay, conditions: first compound 0.01581 µM

Cell Line	relative viability
NCI-H838	0.443
NCI-H1650	0.187
EBC-1	0.623
NCI-H1703	0.196
NCI-H1993	1.12
NCI-H441	0.443
PC-14	0.533
LCLC-103H	1.04
NCI-H596	0.788
NCI-H2126	1.15
EMC-BAC-2	0.301
NCI-H2085	1.17
Calu-6	0.352
HCC-366	1.04
NCI-H1666	0.742
NCI-H647	1.01
NCI-H2087	0.662
H3255	0.888
COR-L23	0.212
COR-L 105	0.753
IA-LM	0.491
LOU-NH91	0.559
ChaGo-K-1	0.562
NCI-H2405	0.612
HOP-62	0.26
HCC-44	0.825
